Test [1] concerns the target T1, acetylcholinesterase (AChE) (Homo sapiens, UniProt P22303). As to the kind of experiment: DESI-MS label-free acetylcholinesterase inhibition assay, dose-response curves. It is filed as biochemical.
Test [2] has as its target T1, acetylcholinesterase (AChE). The test can be described thus: DESI-MS AChE inhibition, Dixon plot (inhibitor and substrate concentrations varied). The test is classed as biochemical.
Protocol: For kinetic determinations the reactions were incubated for 50 minutes, with the concentration of substrate held kept between 0.4 to 1 mM, while the concentration of enzyme was set to 180 ng/mL. Note that only concentrations within the calibration range were used. The calibrated result (inset) is used to determine v0 of the reaction. The data shown come from eight instrumental replicates from a single mixture (128 spots), acquired in less than 2.5 minutes.
Further characterization of the inhibitors was achieved by screening simultaneously different concentrations of inhibitor and the substrate in order to obtain the Dixon plot (FIG. 11). […] This Dixon plot required that 24 independent progress curves be determined: duplicate measurements taken on 12 combinations of concentrations of inhibitor (0, 40, 100, 200 nM) and substrate (0.6, 0.8, 1.0 mM). This required the analysis of 3072 spots, carried out in approx. 35 minutes, with simultaneous incubation time of 50 minutes.

One may read the IC50 as the point on the concentration scale where inhibition reaches its midpoint. High values mean weaker potency in that assay, low ones greater potency in that assay.

The structures appear in SMILES notation.

T1 sequence (P22303 32-614, species assumed): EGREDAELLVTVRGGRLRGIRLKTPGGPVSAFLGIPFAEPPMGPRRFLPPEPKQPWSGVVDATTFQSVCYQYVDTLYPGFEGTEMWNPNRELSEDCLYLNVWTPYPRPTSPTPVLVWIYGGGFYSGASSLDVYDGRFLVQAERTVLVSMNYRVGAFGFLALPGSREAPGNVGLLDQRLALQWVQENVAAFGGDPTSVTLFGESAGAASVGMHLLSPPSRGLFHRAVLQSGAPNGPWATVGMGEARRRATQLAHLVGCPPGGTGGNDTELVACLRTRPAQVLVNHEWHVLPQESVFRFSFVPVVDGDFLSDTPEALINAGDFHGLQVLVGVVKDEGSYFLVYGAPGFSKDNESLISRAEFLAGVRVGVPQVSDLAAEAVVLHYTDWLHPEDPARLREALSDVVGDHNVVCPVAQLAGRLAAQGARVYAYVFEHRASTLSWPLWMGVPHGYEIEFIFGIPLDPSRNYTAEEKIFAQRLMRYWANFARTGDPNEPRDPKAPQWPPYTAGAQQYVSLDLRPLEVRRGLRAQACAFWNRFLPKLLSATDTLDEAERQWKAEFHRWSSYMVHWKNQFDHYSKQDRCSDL

As for `COc1ccc2c3c1O[C@H]1C(=O)CC[C@@]4(O)[C@@H](C2)N(C)CC[C@]314` [oxycodone], the half-maximal inhibitory concentration (IC50) in test [1] is 0.122 µM. On to `CN(C)C(=O)Oc1cccc([N+](C)(C)C)c1` [neostigmine], for which the “type of inhibition (intersection of the lines in the Dixon plot)” value in test [2] was “competitive inhibitor”.

In turn, `COc1ccc2c3c1O[C@H]1C(=O)CC[C@H]4[C@@H](C2)N(C)CC[C@]314` [hydrocodone] displayed an IC50 in test [1] of 116 µM.

These data come from patent publication US12130255B2, “High-throughput label-free enzymatic bioassays using DESI-MS” (priority 2020, dated 2024).
